According to ChEMBL document CHEMBL1136406, “Amide analogues of TSA: synthesis, binding mode analysis and HDAC inhibition” (Bioorg Med Chem Lett, 2003):

Target: Histone deacetylase
Description: Inhibitory activity against histone deacetylase (HDAC)

Compound | IC50
CN(C)c1ccc(C(=O)NCCCCCC(=O)NO)cc1 | 152 nM
C[C@H](/C=C/C=C/C(=O)NO)NC(=O)c1ccc(N(C)C)cc1 | 12187 nM
C[C@H](CCCCC(=O)NO)NC(=O)c1ccc(N(C)C)cc1 | 359 nM
